Counter-ions that a name gives are not always drawn. Like-named read-outs stand apart in the source and are kept apart here.

What all share (experiment): AK assay 384-well format, Prestwick library screening
The subject of experiment [1] is A. baumannii strain 98-37-09. The experiment is classed as cell-based, Acinetobacter baumannii. The following applies: 50 μM final drug concentration; for fold induction at 50 µM: Acinetobacter baumannii, 983709, 3 h.
Experiment [2] deals with P. aeruginosa. The experiment is classed as cell-based, Pseudomonas aeruginosa. The note with it: 50 μM final drug concentration; for fold induction at 50 µM: Pseudomonas aeruginosa, 3 h.
The subject of experiment [3] is E. cloacae. The experiment is classed as cell-based, Enterobacter cloacae. The note with it: 50 μM final drug concentration; for fold induction at 50 µM: Enterobacter cloacae, 3 h.
Experiment [4] has as its system S. aureus strain USA300-0114. The experiment is classed as cell-based, Staphylococcus aureus. The note with it: 50 μM final drug concentration; for fold induction at 50 µM: Staphylococcus aureus, USA300, 3 h.
Experiment [5] deals with E. faecium. The experiment is classed as cell-based, Enterococcus faecium. The following applies: 50 μM final drug concentration; for fold induction at 50 µM: Enterococcus faecium, 3 h.
Experiment [6] has as its system E. coli. It counts as cell-based, Escherichia coli. The following applies: 50 μM final drug concentration; for fold induction at 50 µM: Escherichia coli, 3 h.
In experiment [7] the test system is K. pneumoniae. It counts as cell-based, Klebsiella pneumoniae. The note with it: 50 μM final drug concentration; for fold induction at 50 µM: Klebsiella pneumoniae, 3 h.
Where [8] appears, read: planktonic A. baumannii, positive cutoff 3-fold increase, read-out: AK-based Prestwick library screening result, A. baumannii (fold increase in extracellular AK activity).
[9] abbreviates: planktonic P. aeruginosa, positive cutoff 3-fold increase, read-out: AK-based Prestwick library screening result, P. aeruginosa (fold increase in extracellular AK activity).
The mark [10] stands for this setting: planktonic E. cloacae, positive cutoff 3-fold increase, read-out: AK-based Prestwick library screening result, E. cloacae (fold increase in extracellular AK activity).
The mark [11] stands for this setting: planktonic S. aureus, positive cutoff 3-fold increase, read-out: AK-based Prestwick library screening result, S. aureus (fold increase in extracellular AK activity).
The mark [12] stands for this setting: planktonic E. faecium, positive cutoff 3-fold increase, read-out: AK-based Prestwick library screening result, E. faecium (fold increase in extracellular AK activity).
Setting [13] is: planktonic E. coli, positive cutoff 3-fold increase, read-out: AK-based Prestwick library screening result, E. coli (fold increase in extracellular AK activity).
[14] abbreviates: planktonic K. pneumoniae, positive cutoff 3-fold increase, read-out: AK-based Prestwick library screening result, K. pneumoniae (fold increase in extracellular AK activity).
The mark [15] stands for this setting: 384-well format, cutoff for positive-scoring molecules 3-fold increase, read-out: AK-based Prestwick Library Screening Results, A. baumannii (increase in extracellular AK activity).
The mark [16] stands for this setting: 384-well format, cutoff for positive-scoring molecules 3-fold increase, read-out: AK-based Prestwick Library Screening Results, P. aeruginosa (increase in extracellular AK activity).
Setting [17] is: 384-well format, cutoff for positive-scoring molecules 3-fold increase, read-out: AK-based Prestwick Library Screening Results, E. cloacae (increase in extracellular AK activity).
Where [18] appears, read: 384-well format, cutoff for positive-scoring molecules 3-fold increase, read-out: AK-based Prestwick Library Screening Results, S. aureus (increase in extracellular AK activity).
Setting [19] is: 384-well format, cutoff for positive-scoring molecules 3-fold increase, read-out: AK-based Prestwick Library Screening Results, E. faecium (increase in extracellular AK activity).
[20] abbreviates: 384-well format, cutoff for positive-scoring molecules 3-fold increase, read-out: AK-based Prestwick Library Screening Results, E. coli (increase in extracellular AK activity).
[21] abbreviates: 384-well format, cutoff for positive-scoring molecules 3-fold increase, read-out: AK-based Prestwick Library Screening Results, K. pneumoniae (increase in extracellular AK activity).

On to `Cc1cccc(Nc2ccncc2S(=O)(=O)NC(=O)NC(C)C)c1` [Torsemide], for which the fold induction at 50 µM was 1.6 in experiment [1] (setting [8]); 1.1 in experiment [2] (setting [9]); 1.4 in experiment [3] (setting [10]); 1.5 in experiment [4] (setting [11]); 1 in experiment [5] (setting [12]); 1.1 in experiment [6] (setting [13]). Moreover, in experiment [7] (setting [14]), the fold induction at 50 µM was 1.3.
`CCCCNc1c(C(=O)OCC)c(C)nc2c1cnn2CC` [Tracazolate hydrochloride]: the fold induction at 50 µM was found to be 0.8 in experiment [1] (setting [8]); 0.6 in experiment [2] (setting [9]); 0.7 in experiment [3] (setting [10]); 0.5 in experiment [4] (setting [11]); 1.1 in experiment [5] (setting [12]); 0.5 in experiment [6] (setting [13]). Also, the fold induction at 50 µM in experiment [7] (setting [14]) stood at 0.6.
As for `NC[C@H]1CC[C@H](C(=O)O)CC1` [Tranexamic acid], the fold induction at 50 µM in experiment [1] (setting [15]) was 0.8; in experiment [2] (setting [16]) it was 0.9; in experiment [3] (setting [17]), 0.9; in experiment [4] (setting [18]), 0.7; in experiment [5] (setting [19]), 1.1; in experiment [6] (setting [20]), 0.8. For the same compound, the fold induction at 50 µM in experiment [7] (setting [21]) came to 0.7.
Take `N[C@@H]1C[C@H]1c1ccccc1` [Tranylcypromine hydrochloride]: the fold induction at 50 µM is 0.9 in experiment [1] (setting [15]); 0.8 in experiment [2] (setting [16]); 0.9 in experiment [3] (setting [17]); 0.8 in experiment [4] (setting [18]); 1 in experiment [5] (setting [19]); 0.8 in experiment [6] (setting [20]). The fold induction at 50 µM in experiment [7] (setting [21]) was determined as 0.6.
On to `O=c1n(CCCN2CCN(c3cccc(Cl)c3)CC2)nc2ccccn12` [Trazodone hydrochloride], for which the fold induction at 50 µM was 1 in experiment [1] (planktonic A. baumannii, 384-well, cutoff for positive-scoring molecules 3-fold increase, read-out: AK-based Prestwick Library Screening Results: A. baumannii (increase in extracellular AK activity)); 1.2 in experiment [2] (planktonic P. aeruginosa, 384-well, cutoff for positive-scoring molecules 3-fold increase, read-out: AK-based Prestwick Library Screening Results: P. aeruginosa (increase in extracellular AK activity)); 1.3 in experiment [3] (planktonic E. cloacae, 384-well, cutoff for positive-scoring molecules 3-fold increase, read-out: AK-based Prestwick Library Screening Results: E. cloacae (increase in extracellular AK activity)); 0.9 in experiment [4] (planktonic S. aureus, 384-well, cutoff for positive-scoring molecules 3-fold increase, read-out: AK-based Prestwick Library Screening Results: S. aureus (increase in extracellular AK activity)); 1 in experiment [5] (planktonic E. faecium, 384-well, cutoff for positive-scoring molecules 3-fold increase, read-out: AK-based Prestwick Library Screening Results: E. faecium (increase in extracellular AK activity)); 0.9 in experiment [6] (planktonic E. coli, 384-well, cutoff for positive-scoring molecules 3-fold increase, read-out: AK-based Prestwick Library Screening Results: E. coli (increase in extracellular AK activity)). Also, in experiment [7] (planktonic K. pneumoniae, 384-well, cutoff for positive-scoring molecules 3-fold increase, read-out: AK-based Prestwick Library Screening Results: K. pneumoniae (increase in extracellular AK activity)), the fold induction at 50 µM came to 1.
Regarding `C(#CCN1CCCC1)CN1CCCC1.Cl.Cl` [Tremorine dihydrochloride], in experiment [1] (planktonic A. baumannii, […]), the “AK-based Prestwick Library Screening Results, A. baumannii (increase in extracellular AK activity)” value came to 0.7. The “AK-based Prestwick Library Screening Results, P. aeruginosa (increase in extracellular AK activity)” value in experiment [2] (planktonic P. aeruginosa, […]) was 0.6. Besides, the “AK-based Prestwick Library Screening Results, E. cloacae (increase in extracellular AK activity)” value in experiment [3] (planktonic E. cloacae, […]) was found to be 0.7. For the same compound, in experiment [4] (planktonic S. aureus, […]), the “AK-based Prestwick Library Screening Results, S. aureus (increase in extracellular AK activity)” value came out at 0.5. Besides, in experiment [5] (planktonic E. faecium, […]), the “AK-based Prestwick Library Screening Results, E. faecium (increase in extracellular AK activity)” value was found to be 1.0. Further, the “AK-based Prestwick Library Screening Results, E. coli (increase in extracellular AK activity)” value in experiment [6] (planktonic E. coli, […]) is 0.7. In addition, in experiment [7] (planktonic K. pneumoniae, […]), the “AK-based Prestwick Library Screening Results, K. pneumoniae (increase in extracellular AK activity)” value is listed as 0.6.
Regarding `C[C@]12C=CC(=O)C=C1CC[C@H]1[C@@H]3C[C@@H](O)[C@](O)(C(=O)CO)[C@@]3(C)C[C@H](O)[C@@]12F` [Triamcinolone], the fold induction at 50 µM in experiment [1] (setting [15]) turned out to be 0.9; in experiment [2] (setting [16]), 0.7; in experiment [3] (setting [17]), 1.2; in experiment [4] (setting [18]), 0.8; in experiment [5] (setting [19]), 1; in experiment [6] (setting [20]), 1. Besides, the fold induction at 50 µM in experiment [7] (setting [21]) turned out to be 0.7.
As to `Nc1nc(N)c2nc(-c3ccccc3)c(N)nc2n1` [Triamterene], the fold induction at 50 µM was 1.1 in experiment [1] (setting [15]); 0.6 in experiment [2] (setting [16]); 1.2 in experiment [3] (setting [17]); 0.6 in experiment [4] (setting [18]); 0.7 in experiment [5] (setting [19]); 0.6 in experiment [6] (setting [20]). For the same compound, the fold induction at 50 µM in experiment [7] (setting [21]) was found to be 0.5.
As to `CCOC1O[C@H]([C@@H](COCc2ccccc2)OCc2ccccc2)[C@H](OCc2ccccc2)[C@H]1O` (stereo partly shown) [Tribenoside], the fold induction at 50 µM in experiment [1] (setting [8]) was determined as 1.7; in experiment [2] (setting [9]), 1.1; in experiment [3] (setting [10]), 1.5; in experiment [4] (setting [11]), 0.6; in experiment [5] (setting [12]), 1.1; in experiment [6] (setting [13]), 0.9. In addition, the fold induction at 50 µM in experiment [7] (setting [14]) was 0.9.
On to `COP(=O)(OC)C(O)C(Cl)(Cl)Cl` (stereo not shown) [Trichlorfon], for which the fold induction at 50 µM in experiment [1] (planktonic A. baumannii, 384-well, […], read-out: AK-based Prestwick Library Screening Results: A. baumannii (increase in extracellular AK activity)) turned out to be 0.9; in experiment [2] (planktonic P. aeruginosa, 384-well, […], read-out: AK-based Prestwick Library Screening Results: P. aeruginosa (increase in extracellular AK activity)) it was 1; in experiment [3] (planktonic E. cloacae, 384-well, […], read-out: AK-based Prestwick Library Screening Results: E. cloacae (increase in extracellular AK activity)), 1.5; in experiment [4] (planktonic S. aureus, 384-well, […], read-out: AK-based Prestwick Library Screening Results: S. aureus (increase in extracellular AK activity)) it was 1.1; in experiment [5] (planktonic E. faecium, 384-well, […], read-out: AK-based Prestwick Library Screening Results: E. faecium (increase in extracellular AK activity)) it was 0.8; in experiment [6] (planktonic E. coli, 384-well, […], read-out: AK-based Prestwick Library Screening Results: E. coli (increase in extracellular AK activity)) it was 1.2. Besides, in experiment [7] (planktonic K. pneumoniae, 384-well, […], read-out: AK-based Prestwick Library Screening Results: K. pneumoniae (increase in extracellular AK activity)), the fold induction at 50 µM was determined as 1.1.

The values above are taken from patent US10004701B2, “Methods and compositions for treating infection” (UNIVERSITY OF ROCHESTER, priority 2012, dated 2018).
